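Dose response: 5 concentrations. Exposure: 48 h. Format: 96-well plates. Endpoint: linear interpolation; highest concentration if not reached. At the TGI there is no net growth.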
Key:
Assay in all cases: inhibition of tumour cell growth, NCI panel, 48 h
A498 renal = test system: A498 renal
HCT-15 colon = test system: HCT-15 colon
LOX IMVI melanoma = test system: LOX IMVI melanoma
MCF7 breast = test system: MCF7 breast
NCI-H226 lung = test system: NCI-H226 lung
NCI-H460 lung = test system: NCI-H460 lung
NCI-H522 lung = test system: NCI-H522 lung
UO-31 renal = test system: UO-31 renal
A549 NSCLC = test system: A549 NSCLC
COLO 205 colon = test system: COLO 205 colon
MALME-3M melanoma = test system: MALME-3M melanoma
SNB-75 CNS = test system: SNB-75 CNS
BT-549 breast = test system: BT-549 breast

Row | Compound | TGI (A498 renal) | TGI (HCT-15 colon) | TGI (LOX IMVI melanoma) | TGI (MCF7 breast) | TGI (NCI-H226 lung) | TGI (NCI-H460 lung) | TGI (NCI-H522 lung) | TGI (UO-31 renal) | TGI (A549 NSCLC) | TGI (COLO 205 colon) | TGI (MALME-3M melanoma) | TGI (SNB-75 CNS) | TGI (BT-549 breast)
1 | CC1=CC(=O)CC(C)(C)C1/C=C/C(C)=C/C=C/C(C)=C/C=C/C=C(C)/C=C/C=C(C)/C=C/C1=C(C)CC(O)CC1(C)C (stereo unspecified) | > 100 µM | 73.4 µM | > 100 µM | 45.3 µM | > 100 µM | > 100 µM | 72.7 µM | > 100 µM | – | – | – | – | –
2 | O=C(NCCNCCCNC(=O)c1cc(-c2ccccc2)nc2ccccc12)c1cccc(OCc2ccccc2)c1OCc1ccccc1 | 2.98 µM | 3.25 µM | 2.95 µM | 3.1 µM | 3.35 µM | 3.8 µM | 3.12 µM | 3.03 µM | 3.15 µM | 3.11 µM | 3.58 µM | 3.39 µM | –
3 | O=C(CNC(c1ccccc1)(c1ccccc1)c1ccccc1)NC1CCCCC1NC(=O)CNC(c1ccccc1)(c1ccccc1)c1ccccc1 (stereo unspecified) | > 100 µM | > 100 µM | > 100 µM | > 100 µM | – | > 100 µM | > 100 µM | > 100 µM | > 100 µM | > 100 µM | > 100 µM | – | > 100 µM
4 | COC1OC(COC(=O)c2cc(O)c(O)c(O)c2)C(OC(=O)c2cc(O)c(O)c(O)c2)C(OC(=O)c2cc(O)c(O)c(O)c2)C1OC(=O)c1cc(O)c(O)c(O)c1 (stereo unspecified) | 62.6 µM | > 100 µM | > 100 µM | > 100 µM | 66.8 µM | > 100 µM | 50.4 µM | > 100 µM | > 100 µM | > 100 µM | > 100 µM | > 100 µM | –
5 | CCCCCC/C=C1\CCC(CN2CCOCC2)C1=O (stereo unspecified) | 35.2 µM | 25.9 µM | 25.1 µM | – | 30 µM | > 66 µM | 19.4 µM | 27.5 µM | > 67.3 µM | 32.3 µM | 30.6 µM | 42.3 µM | –
6 | CC(=O)OC1COC(N2C(=O)C(=O)c3cc(Br)ccc32)C(OC(C)=O)C1OC(C)=O (stereo unspecified) | > 100 µM | > 100 µM | > 100 µM | – | > 100 µM | > 100 µM | > 100 µM | > 100 µM | > 100 µM | > 100 µM | > 100 µM | > 100 µM | –
7 | COP(=O)(OC)C(O)CC(C)C (stereo unspecified) | > 100 µM | – | – | > 100 µM | > 100 µM | > 100 µM | – | > 100 µM | > 100 µM | > 100 µM | – | > 100 µM | –
8 | CC(C)(C)c1cc2c(O)c(c1)Cc1cc(C(C)(C)C)cc(c1O)Cc1cc(C(C)(C)C)cc(c1O)Cc1cc(C(C)(C)C)cc(c1O)Cc1cc(C(C)(C)C)cc(c1O)Cc1cc(C(C)(C)C)cc(c1O)Cc1cc(C(C)(C)C)cc(c1O)Cc1cc(C(C)(C)C)cc(c1O)C2 | > 50 µM | > 50 µM | – | > 50 µM | > 50 µM | > 50 µM | > 50 µM | > 50 µM | > 50 µM | > 50 µM | > 50 µM | > 50 µM | –
9 | CSc1ncc2c(n1)sc1c(=O)n(-c3ccccc3)cnc12 | > 100 µM | > 100 µM | > 100 µM | – | > 100 µM | > 100 µM | > 100 µM | > 100 µM | > 100 µM | > 100 µM | > 100 µM | > 100 µM | > 100 µM
10 | Cc1c2ccncc2c(C)c2c1[nH]c1ccc(OCC(F)(F)F)cc12 | – | 2.56 µM | 3.09 µM | – | 3.24 µM | 2.46 µM | 3.22 µM | 3.16 µM | 3.3 µM | 3.18 µM | 3.23 µM | 3.65 µM | –
11 | COC(=O)C1=C(C(=O)OC)SC2(S1)C(C(=O)OC)=C(C(=O)OC)Sc1c2ssc1=Nc1ccc(Cl)cc1 | 3.15 µM | – | 1.16 µM | 2.42 µM | 3.38 µM | 1.37 µM | – | 2.01 µM | 3.13 µM | 2.04 µM | – | 2.3 µM | 5.11 µM
12 | O=c1[nH]c(=O)n(C2OC(CO)C(O)C2O)cc1Oc1ccccc1 (stereo unspecified) | > 100 µM | > 100 µM | > 100 µM | > 100 µM | > 100 µM | > 100 µM | > 100 µM | – | > 100 µM | > 100 µM | > 100 µM | > 100 µM | –
13 | CC(C)(C)C1=CC(=C2C(=O)C(=O)c3ccccc3C2=O)C=C(C(C)(C)C)C1=O | 0.93 µM | > 100 µM | > 100 µM | – | – | > 100 µM | 37.9 µM | > 100 µM | > 100 µM | > 100 µM | 58.7 µM | > 100 µM | –
14 | CC(C)(CCCCC(C)(C)[N+](C)(C)C)[N+](C)(C)C | – | > 100 µM | – | > 100 µM | – | > 100 µM | > 100 µM | > 100 µM | > 100 µM | > 100 µM | – | > 100 µM | –
15 | COc1ccccc1/C=C1\NC(=S)N(/C=C2\C(=O)Oc3ccccc3C2=O)C1=O | – | > 100 µM | > 100 µM | > 100 µM | > 100 µM | > 100 µM | > 100 µM | 82.9 µM | > 100 µM | > 100 µM | – | > 100 µM | > 100 µM
16 | O=C(OCc1ccccc1)N(CCCCN(CCCNCc1ccccc1)C(=O)OCc1ccccc1)CCCNCc1ccccc1 | – | 1.17 µM | – | > 100 µM | 2.07 µM | 0.372 µM | – | 2.75 µM | – | 0.33 µM | 3.29 µM | 2.69 µM | –
17 | O=C1CC(=O)NC(=NNS(=O)(=O)c2ccccc2)N1 | – | > 100 µM | – | > 100 µM | > 100 µM | > 100 µM | > 100 µM | > 100 µM | > 100 µM | > 100 µM | > 100 µM | > 100 µM | > 100 µM
18 | Cc1nnc(N)nc1/C=C/c1c(O)ccc2ccccc12 | 47.1 µM | 44 µM | > 100 µM | > 100 µM | 44.5 µM | 71.2 µM | – | 84.6 µM | > 100 µM | > 100 µM | – | – | > 100 µM
19 | COc1ccc(C2C3CCc4ccccc4C3=NN2S(=O)(=O)c2ccc(/C=C/C(=O)O)cc2)cc1 (stereo unspecified) | – | 0.717 µM | 24.5 µM | 6.55 µM | 74.7 µM | 96.5 µM | 7.04 µM | 38 µM | 54.4 µM | 7.43 µM | 23.1 µM | – | > 100 µM
20 | CC(=O)Nc1nnc(S(C)(=O)=O)s1 | > 100 µM | > 100 µM | – | > 100 µM | > 100 µM | > 100 µM | – | > 100 µM | > 100 µM | > 100 µM | > 100 µM | – | > 100 µM
